The values below come from US8574590B2 (Integral Molecular, Inc., priority 2003, dated 2013).

Broadly, the Kd is the concentration at which binding is half-saturated.

Series [1] has as its target Shaker (Drosophila melanogaster, UniProt P08510). The note with it: cited from earlier work.
The target in series [2] is Kv1.3 (Homo sapiens, UniProt P22001). The conditions noted are these: cited from earlier work.
The subject of series [3] is K-channels. The note with it: cited from earlier work.
For series [4] the following is noted: depending on the ionic composition of the membrane; cited from earlier work.
For series [5] the following is noted: read-out: Kd for Ca^++; cited from earlier work.
In series [6] the test system is Ca-activated K-channels. The note with it: cited from earlier work.
The test system of series [7] is Gag/luciferase-lipoparticles. In words: Melittin poration of Gag/luciferase-lipoparticles (luciferase luminescence). Type of series: biochemical. The note with it: melittin 0.3 to 105 uM, 30 minutes. The protocol: FIG. 24. […] Lipoparticles were constructed to contain a luciferase enzyme inside the lipoparticle. […] To insure the integrity of the luciferase, after each addition of melittin, the same sample was lysed with Triton X-100 (circles) and again measured.
Lipoparticles containing a Gag-luciferase fusion protein were prepared as described herein. Melittin, ranging from 0.3 to 105 uM in final concentration, was added to solutions of Gag/luciferase-lipoparticles (MOPS pH 6.5 buffer), mixed, and incubated for 30 minutes. A 5 μl aliquot of the Lipoparticle solution was then transferred to a 96-well plate containing 50 μl of Luciferase assay reagent (Promega Steady Glo Luciferase Assay System) which contains the necessary reagents for enzymatic activity, including luciferin, ATP, and Mg^2+. Luminescence was measured for 1 second integrations in a Wallac Victor2V. […] Triton X-100 was used to lyse luciferase-lipoparticles as a positive control.

Where two headings read alike, the source gives them in different places.

Sequence of Kv1.3 (P22001 whole entry): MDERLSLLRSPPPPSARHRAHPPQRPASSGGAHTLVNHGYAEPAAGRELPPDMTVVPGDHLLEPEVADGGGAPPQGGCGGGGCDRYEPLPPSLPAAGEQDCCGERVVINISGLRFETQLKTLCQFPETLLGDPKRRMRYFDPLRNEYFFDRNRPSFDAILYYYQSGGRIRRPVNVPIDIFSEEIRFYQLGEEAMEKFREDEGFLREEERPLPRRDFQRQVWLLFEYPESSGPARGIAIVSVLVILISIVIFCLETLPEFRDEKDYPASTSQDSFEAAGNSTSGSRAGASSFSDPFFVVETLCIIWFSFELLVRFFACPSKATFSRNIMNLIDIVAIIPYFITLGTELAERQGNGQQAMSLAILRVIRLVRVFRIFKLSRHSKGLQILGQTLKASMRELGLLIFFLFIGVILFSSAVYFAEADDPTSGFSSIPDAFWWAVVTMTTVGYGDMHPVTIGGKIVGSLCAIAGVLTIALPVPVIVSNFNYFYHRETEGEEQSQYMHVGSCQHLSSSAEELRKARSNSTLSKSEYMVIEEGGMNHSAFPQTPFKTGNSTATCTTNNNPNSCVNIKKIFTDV
Sequence of Shaker (P08510 whole entry): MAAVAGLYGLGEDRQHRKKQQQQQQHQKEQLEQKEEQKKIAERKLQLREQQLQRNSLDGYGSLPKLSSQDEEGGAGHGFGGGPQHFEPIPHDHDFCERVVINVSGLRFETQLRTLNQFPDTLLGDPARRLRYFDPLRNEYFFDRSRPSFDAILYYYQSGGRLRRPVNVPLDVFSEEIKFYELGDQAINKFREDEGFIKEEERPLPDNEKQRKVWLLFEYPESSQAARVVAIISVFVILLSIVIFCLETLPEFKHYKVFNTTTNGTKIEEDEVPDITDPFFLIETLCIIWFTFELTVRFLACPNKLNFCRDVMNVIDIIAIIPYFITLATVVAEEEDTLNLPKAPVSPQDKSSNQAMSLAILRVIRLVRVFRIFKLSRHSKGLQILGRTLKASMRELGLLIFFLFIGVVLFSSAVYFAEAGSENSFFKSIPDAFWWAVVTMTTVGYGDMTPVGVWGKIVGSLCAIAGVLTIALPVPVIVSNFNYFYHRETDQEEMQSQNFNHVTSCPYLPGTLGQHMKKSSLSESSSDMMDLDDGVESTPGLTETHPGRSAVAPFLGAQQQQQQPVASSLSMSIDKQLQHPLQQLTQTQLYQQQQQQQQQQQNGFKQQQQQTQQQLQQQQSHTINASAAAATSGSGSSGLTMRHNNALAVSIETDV

In the case of “Agitoxin-2: toxin, inhibitor of K-channels”, in series [1], the “Blocking of Shaker” value was “Blocks Kv1.3 and Shaker”. For the same molecule, the “Blocking of Kv1.3” value in series [2] was “Blocks Kv1.3 and Shaker”.

With Margatoxin, the “Blocking of Shaker” value in series [1] is on record as “not Shaker”. For the same molecule, in series [2], the “Blocking of Kv1.3” value is listed as “Blocks”.

For the molecule Charybdotoxin, the “Blocking of Shaker” value in series [1] was “Blocks Kv1.3 and Shaker”; in series [1] (listed as CHTX) it was “highly specific, potent, and impermeant blocker”. The “effect of Ca on binding” value in series [3] was “Ca inhibits binding”. Also, the “binding at low ionic strength, high pH (8.5)” value in series [3] (low ionic strength, high pH (8.5)) is on record as “Low ionic strength, high pH (8.5) enhances binding”. Besides, the “Blocking of Kv1.3” value in series [2] was “Blocks Kv1.3 and Shaker”; in series [2] (listed as CHTX) it was “highly specific, potent, and impermeant blocker”.

As to `CCCCCCCCCCCCCCCCCc1cc(=O)oc2cc(O)ccc12` [4-heptadecyl-7-hydroxycoumarin], in series [4], the pKa range was 6.35-11.15.

For the molecule Alpha-Dendrotoxin, the “Blocking of Shaker” value in series [1] is “Blocks Kv1.3 and Shaker”. Further, the “binding under high ionic strength conditions” value in series [3] (high ionic strength) was “Binds very weakly under high ionic strength”. Further, the “binding under low ionic strength conditions” value in series [3] (low ionic strength) was “Binds strongly under low ionic strength conditions”. Besides, in series [2], the “Blocking of Kv1.3” value is “Blocks Kv1.3 and Shaker”.

Regarding `Cc1ccc(N(CC(=O)O)CC(=O)O)c(OCCOc2cc3cc(-c4ncc(C(=O)O)o4)oc3cc2N(CC(=O)O)CC(=O)O)c1` [Fura-2], in series [5], the equilibrium dissociation constant (Kd) was 140 nM.

For “Iberiotoxin: toxin, inhibitor of K-channels (QFTDVDCSVSKECWSVCKDLFGVDRGKCMGKKCRCYQ; UniProt P24663 1-37, looked up)”, the “Blocking of Shaker” value in series [1] was “not”. Moreover, the “Blocking of Ca-activated K-channels” value in series [6] is “Blocks”. The “Blocking of Kv1.3” value in series [2] was “not Kv1.3”.

On to `CC[C@H](C)[C@H](NC(=O)CN)C(=O)NCC(=O)N[C@@H](C)C(=O)N[C@H](C(=O)N[C@@H](CC(C)C)C(=O)N[C@@H](CCCCN)C(=O)N[C@H](C(=O)N[C@@H](CC(C)C)C(=O)N[C@H](C(=O)N[C@H](C(=O)NCC(=O)N[C@@H](CC(C)C)C(=O)N1CCC[C@H]1C(=O)N[C@@H](C)C(=O)N[C@@H](CC(C)C)C(=O)N[C@H](C(=O)N[C@@H](CO)C(=O)N[C@@H](Cc1c[nH]c2ccccc12)C(=O)N[C@H](C(=O)N[C@@H](CCCCN)C(=O)N[C@@H](CCCNC(=N)N)C(=O)N[C@@H](CCCCN)C(=O)N[C@@H](CCCNC(=N)N)C(=O)N[C@@H](CCC(N)=O)C(=O)N[C@@H](CCC(N)=O)C(N)=O)[C@@H](C)CC)[C@@H](C)CC)[C@@H](C)O)[C@@H](C)O)C(C)C)C(C)C` [Melittin], for which the “permeabilization of lipoparticles (luciferase signal)” value is recorded as “increase of the luminescent signal” in series [7] and “the lipoparticles were permeabilized” in series [7] (listed as melittin).
